From US6407250B1, “Interphenylene 7-oxabicyclic [2.2.1] heptane oxazoles as prostaglandin F2a antagonists” (Allergan Sales, Inc., priority 2000, dated 2002)

Target: T1, human FP receptor (Homo sapiens, UniProt P43088)
T1 construct: expressed in transfected cells
Test: Ca2+ signaling: antagonism of the 17-phenyl PGF2α response in HEK cells stably transfected with the human FP receptor
Assay type: cell-based
Conditions: compared with the compound of U.S. Pat. Nos. 5,100,889 and 5,153,327
Procedure: The compound of Example 22 was tested for PGF2αantagonist activity as follows:
HEK cells stably transfected with the human FP receptor were removed from the culture flasks by approximately 1 min treatment with trypsin 0.05%/0.53 mM EDTA in HBSS (Gibco, Grand Island, N.Y.) at 37° C. Proteolytic activity was arrested by adding 5 ml of 10% fetal bovine serum in DMEM. The cells were consecutively washed in Hank's BSS and medium containing 140 mM NaCl, […], 1 mM MgCl2, 1.5 mM CaCl2, 10 mM HEPES: TRIS, 5 mM glucose, 5 mM Na pyruvate, 0.1% bovine serum albumin at pH 7.4: centrifugation for the washes was performed for 15 minutes at 200 g at room temperature. Cells were counted, resuspended in the above medium and incubated with 2×10^−6 M Fura 2/acetoxymethyl ester in a shaking water bath for 30 minutes at 37° C. The cells were subsequently washed in medium as above and resuspended at a concentration of 2×10^6 cells ml^−1. Aliquots of 0.5 ml cell suspension were then added to autocap microtubes to provide 10^6 cells per experimental determination of intracellular free Ca^2+concentration ([Ca^2+]i).
Fluorescence was measured in a Perkin-Elmer LS-5 fluorescence spectrophotometer at excitation and emission wavelengths of 340 and 492 nm, respectively, with both slits at 10 nm. […]

T1 sequence (P43088 whole entry): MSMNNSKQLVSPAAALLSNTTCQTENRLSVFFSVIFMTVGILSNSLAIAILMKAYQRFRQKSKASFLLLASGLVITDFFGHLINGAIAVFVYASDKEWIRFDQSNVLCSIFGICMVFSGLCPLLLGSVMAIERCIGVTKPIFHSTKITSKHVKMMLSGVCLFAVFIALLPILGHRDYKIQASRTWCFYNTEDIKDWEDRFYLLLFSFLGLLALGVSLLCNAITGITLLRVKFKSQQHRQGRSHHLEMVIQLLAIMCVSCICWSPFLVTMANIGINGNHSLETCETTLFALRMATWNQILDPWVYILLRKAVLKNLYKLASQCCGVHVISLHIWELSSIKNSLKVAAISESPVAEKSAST

| SMILES | PGF2α antagonist activity (comparison in words) |
| --- | --- |
| COC(=O)CCc1ccccc1CC1C2CCC(O2)C1c1nc(C(=O)NCCCCC2CCCCC2)co1 (centres unmarked) | much less active than the corresponding acid |
| O=C(O)CCc1ccc(F)cc1C[C@@H]1[C@H](c2nc(C(=O)NCCCCC3CCCCC3)co2)[C@H]2CC[C@H]1O2 [Example 22, 3-(2-{(1R, 2R, 3S, 4R)-3-[4-(4-Cyclohexyl-butylcarbamoyl)-oxazol-2-yl]-7-oxa-bicyclo[2.2.1]hept-2-ylmethyl}-4-fluoro-phenyl)-propionic acid] | greater than the compound disclosed in U.S. Pat. Nos. 5,100,889 and 5,153,327 |
